Test results as given in ChEMBL document CHEMBL1909046, “DrugMatrix in vitro pharmacology data”.

What was measured:
[1] = biological target: Histamine H2 receptor (Homo sapiens, UniProt P25021); format: cell membranes, CHO-K1, Membrane; settings: cho-k1; also: in other assays of this panel Not Active means under 50% inhibition at 10 µM
[2] = biological target: T1, C-C chemokine receptor type 4 (Homo sapiens, UniProt P51679); format: cell membranes, Membrane; settings: chem-1; also: in other assays of this panel Not Active means under 50% inhibition at 10 µM
T1 sequence (P51679 whole entry): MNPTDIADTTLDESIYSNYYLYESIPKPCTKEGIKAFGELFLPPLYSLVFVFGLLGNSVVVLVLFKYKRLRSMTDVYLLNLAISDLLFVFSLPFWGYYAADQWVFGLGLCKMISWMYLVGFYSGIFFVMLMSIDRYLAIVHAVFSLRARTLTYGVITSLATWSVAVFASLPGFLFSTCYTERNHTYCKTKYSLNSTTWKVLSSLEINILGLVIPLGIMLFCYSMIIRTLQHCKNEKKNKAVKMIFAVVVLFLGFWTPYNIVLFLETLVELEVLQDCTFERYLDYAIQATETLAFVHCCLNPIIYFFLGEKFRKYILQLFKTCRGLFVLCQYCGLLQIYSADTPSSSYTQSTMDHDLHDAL

[3] = DRUGMATRIX: GABAA, Flunitrazepam, Central radioligand binding (ligand: [3H] Flunitrazepam); format: cell membranes, Rattus norvegicus, Wistar, Brain, Membrane; settings: Not Active = under 50% inhibition at 10 µM
[4] = biological target: Protein kinase C alpha type (Homo sapiens, UniProt P17252); format: cell-based; settings: sf9;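 also: inhibition of PKCalpha kinase activity measured in an enzyme assay with histone as the phosphorylation substrate; in other assays of this panel Not Active means under 50% inhibition at 10 µM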
[5] = biological target: T2, Cytochrome P450 2A6 (Homo sapiens, UniProt P11509); settings: bti-tn-5b1-4; also: in other assays of this panel Not Active means under 50% inhibition at 10 µM
T2 sequence (P11509 whole entry): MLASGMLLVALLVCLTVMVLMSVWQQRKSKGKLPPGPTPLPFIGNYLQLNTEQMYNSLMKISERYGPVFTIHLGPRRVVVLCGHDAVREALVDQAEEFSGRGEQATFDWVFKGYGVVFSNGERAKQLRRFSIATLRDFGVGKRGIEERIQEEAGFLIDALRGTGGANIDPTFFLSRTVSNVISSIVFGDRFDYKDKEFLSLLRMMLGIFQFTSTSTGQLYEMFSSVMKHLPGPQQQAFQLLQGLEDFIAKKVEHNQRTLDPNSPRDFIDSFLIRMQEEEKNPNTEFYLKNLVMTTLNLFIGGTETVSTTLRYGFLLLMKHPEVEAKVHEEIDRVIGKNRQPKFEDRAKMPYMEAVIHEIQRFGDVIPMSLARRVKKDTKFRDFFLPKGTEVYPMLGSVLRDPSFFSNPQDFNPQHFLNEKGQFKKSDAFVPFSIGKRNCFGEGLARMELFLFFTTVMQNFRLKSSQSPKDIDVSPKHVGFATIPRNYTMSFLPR

[6] = biological target: Glycine receptor (Rattus norvegicus, UniProt P22771+P24524+P07727+P20781); format: cell membranes, Wistar, Spinal cord, Membrane; also: in other assays of this panel Not Active means under 50% inhibition at 10 µM
[7] = biological target: Sodium-dependent dopamine transporter (Homo sapiens, UniProt Q01959); experiment: DRUGMATRIX: Dopamine Transporter radioligand binding (ligand: [125I] RTI-55); format: cell membranes, CHO-K1, Membrane; settings: cho-k1; Not Active = under 50% inhibition at 10 µM
Chain of Sodium-dependent dopamine transporter (Q01959 whole entry): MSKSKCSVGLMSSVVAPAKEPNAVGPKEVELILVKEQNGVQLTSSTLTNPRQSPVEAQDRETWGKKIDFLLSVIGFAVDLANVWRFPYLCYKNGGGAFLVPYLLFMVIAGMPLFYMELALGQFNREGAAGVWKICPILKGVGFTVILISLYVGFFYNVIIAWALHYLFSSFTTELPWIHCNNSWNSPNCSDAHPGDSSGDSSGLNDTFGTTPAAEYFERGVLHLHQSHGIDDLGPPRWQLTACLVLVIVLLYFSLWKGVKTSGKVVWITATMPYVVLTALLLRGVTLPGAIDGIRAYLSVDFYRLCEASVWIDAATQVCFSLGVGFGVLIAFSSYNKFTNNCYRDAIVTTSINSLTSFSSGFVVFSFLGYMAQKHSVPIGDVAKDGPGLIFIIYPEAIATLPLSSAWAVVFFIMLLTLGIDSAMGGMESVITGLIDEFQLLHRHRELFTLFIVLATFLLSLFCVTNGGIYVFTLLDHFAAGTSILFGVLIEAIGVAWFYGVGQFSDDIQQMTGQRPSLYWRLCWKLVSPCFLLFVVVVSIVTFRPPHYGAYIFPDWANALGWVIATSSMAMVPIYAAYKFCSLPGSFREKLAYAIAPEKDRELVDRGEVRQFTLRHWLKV

[8] = biological target: T3, Receptor-type tyrosine-protein phosphatase C (Homo sapiens, UniProt P08575); parameters: species or system Escherichia coli
T3 sequence (P08575 whole entry): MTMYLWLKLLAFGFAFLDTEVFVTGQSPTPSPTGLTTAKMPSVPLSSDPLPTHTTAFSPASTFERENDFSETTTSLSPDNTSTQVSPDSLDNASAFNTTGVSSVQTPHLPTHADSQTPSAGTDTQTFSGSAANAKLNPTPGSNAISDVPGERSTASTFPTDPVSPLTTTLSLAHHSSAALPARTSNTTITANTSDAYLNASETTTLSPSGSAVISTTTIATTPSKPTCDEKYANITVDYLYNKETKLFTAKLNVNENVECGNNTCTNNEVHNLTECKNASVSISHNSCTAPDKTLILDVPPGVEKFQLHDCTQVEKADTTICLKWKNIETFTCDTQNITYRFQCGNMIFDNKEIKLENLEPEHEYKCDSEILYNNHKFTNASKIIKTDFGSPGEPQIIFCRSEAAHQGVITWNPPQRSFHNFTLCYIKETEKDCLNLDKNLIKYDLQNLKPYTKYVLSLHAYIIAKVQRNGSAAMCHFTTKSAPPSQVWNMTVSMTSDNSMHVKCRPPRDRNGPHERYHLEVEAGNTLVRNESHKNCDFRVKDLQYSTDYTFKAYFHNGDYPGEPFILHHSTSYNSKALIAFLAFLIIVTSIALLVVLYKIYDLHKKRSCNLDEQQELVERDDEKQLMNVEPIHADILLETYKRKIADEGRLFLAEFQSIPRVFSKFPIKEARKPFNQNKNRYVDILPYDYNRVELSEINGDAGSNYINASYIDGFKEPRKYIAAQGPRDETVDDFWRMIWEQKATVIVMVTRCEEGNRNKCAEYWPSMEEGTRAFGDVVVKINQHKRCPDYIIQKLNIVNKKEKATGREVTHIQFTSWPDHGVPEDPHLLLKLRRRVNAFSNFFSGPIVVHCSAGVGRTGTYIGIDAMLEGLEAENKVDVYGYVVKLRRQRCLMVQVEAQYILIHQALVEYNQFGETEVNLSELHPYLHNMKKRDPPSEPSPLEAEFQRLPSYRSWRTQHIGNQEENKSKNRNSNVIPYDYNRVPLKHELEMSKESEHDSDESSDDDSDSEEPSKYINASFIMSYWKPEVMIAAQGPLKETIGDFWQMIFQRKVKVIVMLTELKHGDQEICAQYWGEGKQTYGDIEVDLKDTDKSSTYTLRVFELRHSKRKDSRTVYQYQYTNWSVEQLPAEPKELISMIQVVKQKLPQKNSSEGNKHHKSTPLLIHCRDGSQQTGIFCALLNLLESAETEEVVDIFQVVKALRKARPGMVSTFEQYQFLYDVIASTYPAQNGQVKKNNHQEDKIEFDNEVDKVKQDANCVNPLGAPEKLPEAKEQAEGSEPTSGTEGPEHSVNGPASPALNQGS

Chain of Histamine H2 receptor (P25021 whole entry): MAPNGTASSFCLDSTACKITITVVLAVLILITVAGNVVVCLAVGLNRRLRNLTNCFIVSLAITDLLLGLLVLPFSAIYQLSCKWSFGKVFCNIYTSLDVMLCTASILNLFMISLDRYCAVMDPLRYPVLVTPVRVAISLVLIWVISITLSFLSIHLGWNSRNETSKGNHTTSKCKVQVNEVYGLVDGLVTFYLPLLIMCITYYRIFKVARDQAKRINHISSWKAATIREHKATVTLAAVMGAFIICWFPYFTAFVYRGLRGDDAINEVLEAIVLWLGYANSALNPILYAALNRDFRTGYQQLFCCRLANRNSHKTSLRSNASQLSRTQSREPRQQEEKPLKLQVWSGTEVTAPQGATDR

CCCCCC[C@H]1C(=O)O[C@H](C)[C@H](NC(=O)c2cccc(NC=O)c2O)C(=O)O[C@@H](C)[C@@H]1OC(=O)CC(C)C [ANTIMYCIN A]
Not Active: IC50 [1] | IC50 [2] | IC50 [3] | Ki [3] | IC50 [4] | IC50 [5] | Ki [5] | IC50 [6] | IC50 [7] | IC50 [8]

CO[C@H]1[C@@H](O)[C@H](N)[C@@H](O[C@H]2O[C@H]([C@H](C)N)CC[C@H]2N)[C@H](O)[C@@H]1N(C)C(=O)CN [ASTROMICIN]
Not Active: IC50 [1] | IC50 [2] | IC50 [3] | Ki [3] | IC50 [4] | IC50 [5] | Ki [5] | IC50 [6] | IC50 [7] | IC50 [8]

[N-]=[N+]=CC(=O)OC[C@H](N)C(=O)O [AZASERINE]
Not Active: IC50 [1] | IC50 [2] | IC50 [3] | Ki [3] | IC50 [4] | IC50 [5] | Ki [5] | IC50 [6] | IC50 [7] | IC50 [8]

CC[C@H]1OC(=O)[C@H](C)[C@@H](O[C@H]2C[C@@](C)(OC)[C@@H](O)[C@H](C)O2)[C@H](C)[C@@H](O[C@@H]2O[C@H](C)C[C@H](N(C)C)[C@H]2O)[C@](C)(O)C[C@@H](C)CN(C)[C@H](C)[C@@H](O)[C@]1(C)O [AZITHROMYCIN]
Not Active: IC50 [1] | IC50 [2] | IC50 [3] | Ki [3] | IC50 [4] | IC50 [5] | Ki [5] | IC50 [6] | IC50 [7] | IC50 [8]

CC(C)(C)c1ccc(S(=O)(=O)/C=C/C#N)cc1 [BAY-11-7085]
Not Active: IC50 [1] | IC50 [2] | IC50 [3] | Ki [3] | IC50 [4] | IC50 [5] | Ki [5] | IC50 [6] | IC50 [7] | IC50 [8]

CCc1oc2ccccc2c1C(=O)c1cc(Br)c(O)c(Br)c1 [BENZBROMARONE]
Not Active: IC50 [1] | IC50 [2] | IC50 [3] | Ki [3] | IC50 [4] | IC50 [5] | Ki [5] | IC50 [6] | IC50 [7] | IC50 [8]

O=c1cc(-c2ccccc2)oc2ccc3ccccc3c12 [BETA-NAPHTHOFLAVONE]
Not Active: IC50 [1] | IC50 [2] | IC50 [3] | Ki [3] | IC50 [4] | IC50 [5] | Ki [5] | IC50 [6] | IC50 [7] | IC50 [8]

CC(C)C[C@H]1C(=O)N2CCC[C@H]2[C@]2(O)O[C@](NC(=O)[C@@H]3C=C4c5cccc6[nH]c(Br)c(c56)C[C@H]4N(C)C3)(C(C)C)C(=O)N12 [BROMOCRIPTINE]
Not Active: IC50 [1] | IC50 [2] | IC50 [3] | Ki [3] | IC50 [4] | IC50 [5] | Ki [5] | IC50 [6] | IC50 [7] | IC50 [8]

CS(=O)(=O)OCCCCOS(C)(=O)=O [BUSULFAN]
Not Active: IC50 [1] | IC50 [2] | IC50 [3] | Ki [3] | IC50 [4] | IC50 [5] | Ki [5] | IC50 [6] | IC50 [7] | IC50 [8]

O=C(/C=C/c1ccc(O)c(O)c1)OCCc1ccccc1 [CAFFEIC ACID PHENETHYL ESTER]
Not Active: IC50 [1] | IC50 [2] | IC50 [3] | Ki [3] | IC50 [4] | IC50 [5] | Ki [5] | IC50 [6] | IC50 [7] | IC50 [8]

COc1cc(CNC(=O)CCCC/C=C/C(C)C)ccc1O [CAPSAICIN]
Not Active: IC50 [1] | IC50 [2] | IC50 [3] | Ki [3] | IC50 [4] | IC50 [5] | Ki [5] | IC50 [6] | IC50 [7] | IC50 [8]

NC(=O)N1c2ccccc2C=Cc2ccccc21 [CARBAMAZEPINE]
Not Active: IC50 [1] | IC50 [2] | IC50 [3] | Ki [3] | IC50 [4] | IC50 [5] | Ki [5] | IC50 [6] | IC50 [7] | IC50 [8]
